Assay: Absorbance measurement of component (b) and derived sensitizing agent, 0.0001% by mass cyclohexane solution
Assay type: physicochemical
Procedure: The component (b) and the sensitizing agent derived from the component (b) are shown together in Table 2. With respect to each of the components (b) and the sensitizing agents derived from the components (b), a 0.0001% by mass cyclohexane solution thereof was prepared. The absorbance of the solution prepared thus was measured using cyclohexane as a reference solvent and a spectrophotometer (“V-670” available from JASCO Corporation).
The absorbance was evaluated to be: “transparent” in a case where the measurement value of the absorbance was less than 0.01 over the entire wavelength range of no less than 300 nm and no greater than 450 nm; and “absorbing” in a case where the measurement value of the absorbance was no less than 0.01 at at least one wavelength within the entire wavelength range of no less than 300 nm and no greater than 450 nm.

SMILES	Absorbance (300-450 nm) of (b) component
COc1ccc(C(O)c2ccc(OC)cc2)cc1 [Example B-1, bis(4-methoxyphenyl)methanol]	transparent (the measurement value of the absorbance was less than 0.01 over the entire wavelength range of no less than 300 nm and no greater than 450 nm)
COc1ccc(C(OC)(OC)c2ccc(OC)cc2)cc1 [Example B-2]	transparent (the measurement value of the absorbance was less than 0.01 over the entire wavelength range of no less than 300 nm and no greater than 450 nm)
